Experimental data published in US11732018B2, “Cancer antigen helper peptide” (priority 2009, dated 2023).
Ends that are not written are not given here.

Key:
[1] = test system: C1498 cells; assay: Proliferation reaction of WT1 peptide-specific cell lines to C1498 stimulator cells (3H incorporation); assay type: cell-based, mouse; conditions: irradiated C1498 stimulators; FIG. 3
Description: As described above, spleen cells were stimulated in vitro 3 times at intervals of 10 days using spleen cells of non-immunized mice, which were pulsed with each WT1 peptide and irradiated. Then, the proliferation reaction was measured by ^3H incorporation using irradiated C1498 cells not expressing any WT1 protein, C1498 cells pulsed with each of the above WT1 peptides, or C1498 cells expressing a WT1 protein by introduction of a WT1 gene, as a stimulator.

[2] = test system: spleen cells of immunized mice; assay: WT1 peptide-specific cell lines, cell proliferation ability (3H incorporation); assay type: cell-based, mouse; conditions: for proliferation reaction with MHC class I antibody or MHC class II antibody added (3H incorporation): 4th stimulation with peptide-pulsed stimulator, antibody added to the culture solution, FIG. 2A-2C; for proliferation reaction in response to stimulator pulsed with the peptide (3H incorporation): spleen cells of mice immunized with the same peptide, 4th stimulation with irradiated peptide-pulsed spleen cells of non-immunized mice, FIG. 1A-1C
Description: First, the above WT1 peptides were emulsified with a Freund's incomplete adjuvant (Montanide ISA 51), and mice were intradermally inoculated with each WT1 peptide in an amount corresponding to 100 μg/mouse. The immunization was carried out 3 times at intervals of one week, the spleen was removed after 1 week of the final immunization, and spleen cells were prepared. The spleen cells were stimulated 3 times at intervals of 10 days using spleen cells of non-immunized mice, which were pulsed with the same WT1 peptide as that used for immunization of each mouse and irradiated, as a stimulator. Then, the 4th stimulation was carried out using spleen cells of non-immunized mice, which were pulsed with each peptide (WT13 5, WT18 6 or WT12 9 4 peptide) as shown in Table 7 and irradiated, as a stimulator, and proliferation reaction in response to each stimulator was measured by a ^3H incorporation experiment. An OVA (ovalbumin) peptide irrelevant to WT1 peptides was used as a control peptide. As a result, mouse spleen cells immunized with a WT13 5 peptide, a WT18 6 peptide or a WT12 9 4 peptide each responded to the stimulator pulsed with a WT13 5 peptide, a WT18 6 peptide or a WT12 9 4 peptide, and proliferated (FIG. 1A to 1C).
As described above, spleen cells were stimulated in vitro 3 times at intervals of 10 days using spleen cells of non-immunized mice, which were pulsed with each WT1 peptide and irradiated. When the 4th stimulation was then carried out using spleen cells of non-immunized mice, which were pulsed with each peptide described above and irradiated, as a stimulator, and proliferation reaction was measured, an MHC class I antibody (D^b antibody) or an MHC class II antibody (Ab antibody) was added to the culture solution and ^3H incorporation was measured.

[3] = test system: RMAS cells pulsed with a WT1126 peptide (MHC class I); assay: WT1-specific immune response in spleen cells of tumor-implanted mice (cytotoxic activity, WT1 tetramer FACS); assay type: in vivo, mouse
Description: Next, mice were dissected on the 29th day after starting the above experiment, the spleen was excised, and a WT1-specific immune response was analyzed using spleen cells. Briefly, the spleen was excised when mice of the WT13 5 helper peptide (MHC class II)-immunized group and the control group were dissected, and spleen cells were prepared. The spleen cells were stimulated once with a WT11 2 6 peptide (MHC class I), and on the 6th day after the stimulation, cytotoxic activity of the spleen cells was measured using RMAS cells pulsed with a WT11 2 6 peptide (MHC class I) as a target cell. As a control, the cytotoxic activity of the spleen cells was measured using RMAS cells as a target cell. […] The WT1-specific cytotoxic T cells were not induced in one mouse. Also, it was clear that the induction of the WT1-specific cytotoxic T cells was lower as compared with the WT13 5 helper peptide (MHC class II)-immunized group (FIGS. 9 and 10).
Next, specific cytolysis was analyzed in mice of the above WT135 helper peptide (MHC class II)-immunized group and control group. […] Also, the above-prepared spleen cells and a fluorescence-labeled WT1 tetramer (H-2 Db WT1 Tetramer-[…]-PE) were incubated at 4° C. for 20 minutes, washed, then stained with fluorescence-labeled CD3 and CD8 antibodies, again washed, and analyzed by FACS. […]

| Sequence | proliferation reaction in response to C1498 cells pulsed with peptide or expressing a WT1 protein (3H incorporation) [1] | proliferation reaction with MHC class I antibody or MHC class II antibody added (3H incorporation) [2] | proliferation reaction in response to stimulator pulsed with the peptide (3H incorporation) [2] | WT1-specific cytotoxic T cells (specific cytolysis; CD3-, CD8- and WT1 tetramer-positive cells) versus control group ([3]; spleen cells of tumor-implanted mice, p<0.05, FIG. 11) | induction of WT1-specific cytotoxic T cells (cytotoxic activity of spleen cells) ([3]; spleen excised on 29th day, stimulated once with WT1126 peptide, measured on 6th day, FIG. 9) |
| --- | --- | --- | --- | --- | --- |
| EQCLSAFTLHFSGQFTG (listed as Mus musculus) [WT186] | produced by an intracellular process of an endogenous WT1 protein and displayed on an MHC class II molecule | suppressed by the addition of an MHC class II antibody | proliferated |  |  |
| FRGIQDVRRVSGVAPTLVR (listed as Mus musculus) [WT1294] | produced by an intracellular process of an endogenous WT1 protein and displayed on an MHC class II molecule | suppressed by the addition of an MHC class II antibody | proliferated |  |  |
| WAPVLDFAPPGASAYGSL [WT135] |  |  |  | significantly high | induced in all 4 mice |
